Laboratory results reported in ChEMBL document CHEMBL5505985 (Eur J Med Chem, 2024).
The source made the active and inactive calls. The calls are words filed in the database; no cut-off is given here.

Experiments:
[1] = target: T1, Prostaglandin G/H synthase 2 (Homo sapiens, UniProt P35354); assay: Inhibition of human recombinant COX-2 using arachidonic acid as substrate pretreated for 5 mins followed by substrate addition and measured after 2 mins by fluorescence based analysis
T1 sequence (P35354 whole entry): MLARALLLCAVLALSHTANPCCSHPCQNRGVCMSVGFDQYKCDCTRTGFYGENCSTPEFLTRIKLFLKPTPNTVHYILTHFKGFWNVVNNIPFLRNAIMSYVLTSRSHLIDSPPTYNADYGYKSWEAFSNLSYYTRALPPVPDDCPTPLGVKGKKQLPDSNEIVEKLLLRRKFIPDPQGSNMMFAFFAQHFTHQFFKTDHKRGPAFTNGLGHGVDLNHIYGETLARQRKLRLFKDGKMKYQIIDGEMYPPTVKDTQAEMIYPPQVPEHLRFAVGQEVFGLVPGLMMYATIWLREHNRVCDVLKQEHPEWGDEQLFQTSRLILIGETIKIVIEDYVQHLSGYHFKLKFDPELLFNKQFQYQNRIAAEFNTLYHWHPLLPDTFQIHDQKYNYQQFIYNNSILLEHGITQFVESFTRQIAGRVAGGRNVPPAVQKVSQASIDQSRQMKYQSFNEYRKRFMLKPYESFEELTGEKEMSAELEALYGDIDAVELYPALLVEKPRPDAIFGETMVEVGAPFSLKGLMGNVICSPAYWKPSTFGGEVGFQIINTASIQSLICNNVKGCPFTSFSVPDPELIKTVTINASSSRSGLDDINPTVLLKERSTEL

RAW264.7 [2] = assay: Antiinflammatory activity in LPS-induced mouse RAW264.7 cells assessed as reduction in iNOS protien level at 10 uM preincubated for 1 hr followed by LPS stimulation and measured after 24 hrs […]; assay type: functional, cell-based; details: time 25.0 hrs
RAW264.7 [3] = assay: Antiinflammatory activity in LPS-induced mouse RAW264.7 cells assessed as downregulation of IL-6 secretion preincubated for 1 hr followed by LPS stimulation and measured after 24 hrs by ELISA method; assay type: functional, cell-based; details: dose 2-30 µM, time 25.0 hrs
RAW264.7 [4] = assay: Antiinflammatory activity in LPS-induced mouse RAW264.7 cells assessed as downregulation of TNF-alpha secretion preincubated for 1 hr followed by LPS stimulation and measured after 3 hrs by ELISA method; assay type: functional, cell-based; details: dose 2-30 µM, time 4.0 hrs
RAW264.7 [5] = assay: Antiinflammatory activity in LPS-induced mouse RAW264.7 cells assessed as suppression of PGE2 secretion at 2 to 30 uM preincubated for 1 hr followed by LPS stimulation and measured after 24 hrs by ELISA method; assay type: functional, cell-based; details: dose 2-30 µM, time 25.0 hrs
[6] = target: NACHT, LRR and PYD domains-containing protein 3 (Mus musculus) (UniProt Q8R4B8); assay: Inhibition of NLRP3 inflammasome in LPS-induced mouse RAW264.7 cells assessed as reduction in NLRP3 activation at 10 to 30 uM primed with LPS for 4.5 hs followed by incubation with compound for 1 hr and later stimulation with ATP for 30 mins by Western blot analysis; assay type: cell-based; details: dose 10-30 µM, time 1.5 hrs
Chain of NACHT, LRR and PYD domains-containing protein 3 (Mus musculus) (Q8R4B8 whole entry, the tested form may be a part): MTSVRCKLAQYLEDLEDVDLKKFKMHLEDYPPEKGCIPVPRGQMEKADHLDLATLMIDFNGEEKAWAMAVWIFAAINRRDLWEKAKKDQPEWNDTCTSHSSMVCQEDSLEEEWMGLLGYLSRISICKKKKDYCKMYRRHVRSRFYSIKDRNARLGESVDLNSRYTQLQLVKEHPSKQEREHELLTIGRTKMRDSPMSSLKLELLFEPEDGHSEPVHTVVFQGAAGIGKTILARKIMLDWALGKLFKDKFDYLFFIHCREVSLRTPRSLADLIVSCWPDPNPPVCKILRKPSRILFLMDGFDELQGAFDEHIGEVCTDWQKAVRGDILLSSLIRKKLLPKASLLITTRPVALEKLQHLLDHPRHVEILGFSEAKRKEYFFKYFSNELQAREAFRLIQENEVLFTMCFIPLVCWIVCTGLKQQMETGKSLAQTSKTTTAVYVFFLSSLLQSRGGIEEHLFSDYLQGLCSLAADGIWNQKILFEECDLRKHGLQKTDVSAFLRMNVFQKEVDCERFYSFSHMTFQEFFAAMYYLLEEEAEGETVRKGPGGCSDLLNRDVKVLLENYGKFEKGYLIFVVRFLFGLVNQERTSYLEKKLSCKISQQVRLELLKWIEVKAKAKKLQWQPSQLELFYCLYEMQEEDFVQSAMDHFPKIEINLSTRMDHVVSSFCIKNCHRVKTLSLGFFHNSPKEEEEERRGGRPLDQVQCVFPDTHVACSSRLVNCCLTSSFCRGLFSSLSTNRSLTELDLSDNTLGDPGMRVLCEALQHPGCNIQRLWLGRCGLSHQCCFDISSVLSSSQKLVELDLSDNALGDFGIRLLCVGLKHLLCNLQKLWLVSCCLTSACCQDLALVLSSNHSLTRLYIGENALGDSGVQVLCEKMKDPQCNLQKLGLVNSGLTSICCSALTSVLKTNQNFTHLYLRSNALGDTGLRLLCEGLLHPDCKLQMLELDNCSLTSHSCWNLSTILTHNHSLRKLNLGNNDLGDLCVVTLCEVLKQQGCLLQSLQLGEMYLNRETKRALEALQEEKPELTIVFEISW

[7] = target: NACHT, LRR and PYD domains-containing protein 3 (Mus musculus) (UniProt Q8R4B8); assay: Inhibition of NLRP3 inflammasome in LPS-induced mouse RAW264.7 cells assessed as downregulation of caspase-1 activation primed with LPS for 4.5 hs followed by incubation with compound for 1 hr and later stimulation with ATP for 30 mins by Western blot analysis; assay type: cell-based; details: dose 10-30 µM, time 1.5 hrs
Mus musculus [8] = assay: Antiinflammatory activity against DSS-induced ulcerative colitis BALB/c mouse assessed as attenuation of colonic length reduction at 0.25 mg/kg, po for 5 days and measured after 12 days; assay type: functional, organism-based; details: time 12.0 day
Mus musculus [9] = assay: Antiinflammatory activity against DSS-induced ulcerative colitis BALB/c mouse assessed as amelioration of crypt architecture loss at 0.25 mg/kg, po for 5 days and measured after 12 days; assay type: functional, organism-based; details: time 12.0 day

SMILES: COc1ccccc1C1=Nn2c(Cc3ccccc3Nc3c(Cl)cccc3Cl)nnc2SC1
- IC50 [1]: 1530 nM
- Activity (RAW264.7 [2]): Active
- Activity (RAW264.7 [3]): Dose-Dependent Effect
- Activity (RAW264.7 [4]): Dose-Dependent Effect
- Activity (RAW264.7 [5]): Active
- inhibition [6]: Active
- inhibition [7]: Dose-Dependent Effect
- Activity (Mus musculus [8]): Active
- Activity (Mus musculus [9]): Active
